From patent US10179782B2, “Substituted sulfonamide compounds” (Genentech, Inc., priority 2016, dated 2019)

Target: T1, human TRPA1 (Homo sapiens, UniProt O75762)
T1 construct: expressed in transfected cells; host or cells: CHO cells
Test: TRPA1 FLIPR Tetra calcium influx assay in CHO cells (block of cinnamaldehyde-induced calcium influx)
Format: cell-based
Settings: Table 2; CHO cells expressing TRPA1; agonist cinnamaldehyde 75 uM; 20 min compound incubation; Hill coefficient fixed to 1.5; read-out: hTRPA1 CHO Ca2+ AUC EVO (IC50)
Experimental: IC50s (effective concentration) of compounds on the human and rat TRPA1 channels were determined using a FLIPR Tetra instrument. CHO cells expressing TRPA1 were plated into 384-well plates, incubated overnight at 37 C, and loaded with BD calcium indicator dye for 1 hr at 37° C. followed by 15 minutes at room temperature. The assay buffer was Hank's Balanced Salt Solution (HBSS) containing 20 mM HEPES (pH readjusted to 7.4) along with 0.02% BSA.
Following dye load and plate cool down, compounds were added to the cells using FLIPR Tetra. Plates were then incubated with compounds for 20 minutes at room temperature prior to adding agonist. Following this incubation, ˜EC80 concentration of cinnamaldehyde (75 uM for human TRPA1 and 45 uM for rat TRPA1) was added to active the channels and block of cinnamaldehyde induced calcium influx was measured.
IC50s were fit with a standard Hill function, keeping the Hill coefficient (n) fixed to 1.5. Fixing the Hill coefficient will generally reduce variability of the IC50 determination. The IC50s were individually examined to make sure the MIN and MAX points were set correctly prior to validation of the results.

T1 sequence (O75762 whole entry): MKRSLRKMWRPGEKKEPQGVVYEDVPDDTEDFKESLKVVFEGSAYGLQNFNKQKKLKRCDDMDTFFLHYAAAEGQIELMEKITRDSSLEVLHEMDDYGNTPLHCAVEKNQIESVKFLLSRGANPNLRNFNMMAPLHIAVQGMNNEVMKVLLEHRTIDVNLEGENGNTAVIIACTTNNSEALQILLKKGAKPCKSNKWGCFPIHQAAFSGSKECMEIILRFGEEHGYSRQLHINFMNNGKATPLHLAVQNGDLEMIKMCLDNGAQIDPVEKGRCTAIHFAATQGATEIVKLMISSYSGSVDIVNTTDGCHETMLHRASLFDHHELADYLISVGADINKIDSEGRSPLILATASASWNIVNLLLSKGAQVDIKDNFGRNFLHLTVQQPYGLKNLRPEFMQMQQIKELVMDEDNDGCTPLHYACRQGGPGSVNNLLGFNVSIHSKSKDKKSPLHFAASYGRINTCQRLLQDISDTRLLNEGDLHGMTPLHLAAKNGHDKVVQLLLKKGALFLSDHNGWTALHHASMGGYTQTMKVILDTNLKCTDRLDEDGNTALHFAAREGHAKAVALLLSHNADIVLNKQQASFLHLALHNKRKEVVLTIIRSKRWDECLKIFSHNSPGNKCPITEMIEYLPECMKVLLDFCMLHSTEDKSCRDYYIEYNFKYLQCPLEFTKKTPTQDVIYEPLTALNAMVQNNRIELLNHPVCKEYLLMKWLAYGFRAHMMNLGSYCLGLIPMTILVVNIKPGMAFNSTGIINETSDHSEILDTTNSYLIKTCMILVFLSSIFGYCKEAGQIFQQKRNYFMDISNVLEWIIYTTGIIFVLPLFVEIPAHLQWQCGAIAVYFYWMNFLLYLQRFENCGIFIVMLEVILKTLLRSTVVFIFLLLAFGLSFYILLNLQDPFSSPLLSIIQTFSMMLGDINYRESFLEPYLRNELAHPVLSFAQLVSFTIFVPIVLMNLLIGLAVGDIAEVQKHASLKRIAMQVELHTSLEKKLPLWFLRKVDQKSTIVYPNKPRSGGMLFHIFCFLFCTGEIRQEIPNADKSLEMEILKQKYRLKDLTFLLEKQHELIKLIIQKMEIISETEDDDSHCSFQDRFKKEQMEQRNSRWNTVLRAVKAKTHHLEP

IC50	SMILES
3.17 nM	C[C@H]1CC[C@@H](C(=O)NCc2cc(-c3cnc(C(F)(F)F)nc3)nc(-c3cnc(C(F)(F)F)nc3)c2)N1S(=O)(=O)c1ccc(F)cc1 [Example 11, (2S,5S)-N-[[2,6-bis[2-(trifluoromethyl)pyrimidin-5-yl]-4-pyridyl]methyl]-1-(4-fluorophenyl)sulfonyl-5-methyl-pyrrolidine-2-carboxamide]
2.94 nM	C[C@H]1[C@H](F)C[C@@H](C(=O)NCc2cc(-c3cnc(C(F)(F)F)nc3)ncc2Cl)N1S(=O)(=O)c1ccc(F)cc1 [Example 12, (2S,4R,5S)-N-[[5-chloro-2-[2-(trifluoromethyl)pyrimidin-5-yl]-4-pyridyl]methyl]-4-fluoro-1-(4-fluorophenyl)sulfonyl-5-methyl-pyrrolidine-2-carboxamide]
23 nM	O=C(NCc1ccnc(-c2cnc(C(F)(F)F)nc2)c1)[C@@H]1C[C@@H]2C[C@@H]2N1S(=O)(=O)c1ccc(F)cc1 [Example 13, (1S,3S,5S)-2-(4-fluorophenyl)sulfonyl-N-[[2-[2-(trifluoromethyl)pyrimidin-5-yl]-4-pyridyl]methyl]-2-azabicyclo[3.1.0]hexane-3-carboxamide]
2.14 nM	C[C@H]1[C@H](F)C[C@@H](C(=O)NCc2cc(-c3cnc(C(F)(F)F)nc3)ccc2F)N1S(=O)(=O)c1ccc(F)cc1 [Example 14, (2S,4R,5S)-4-fluoro-1-(4-fluorophenyl)sulfonyl-N-[[2-fluoro-5-[2-(trifluoromethyl)pyrimidin-5-yl]phenyl]methyl]-5-methyl-pyrrolidine-2-carboxamide]
0.6 nM	O=C(NCc1cc(-c2cnc(C(F)(F)F)nc2)ncc1F)[C@@H]1C[C@@H]2C[C@@H]2N1S(=O)(=O)c1ccc(F)cc1 [Example 15, (1S,3S,5S)-2-(4-fluorophenyl)sulfonyl-N-[[5-fluoro-2-[2-(trifluoromethyl)pyrimidin-5-yl]-4-pyridyl]methyl]-2-azabicyclo[3.1.0]hexane-3-carboxamide]
2.12 nM	O=C(NCc1cc(-c2cnc(C(F)(F)F)nc2)ccc1F)[C@@H]1C[C@@H]2C[C@@H]2N1S(=O)(=O)c1ccc(F)cc1 [Example 16, (1S,3S,5S)-2-(4-fluorophenyl)sulfonyl-N-[[2-fluoro-5-[2-(trifluoromethyl)pyrimidin-5-yl]phenyl]methyl]-2-azabicyclo[3.1.0]hexane-3-carboxamide]
1.37 nM	C[C@H]1CC[C@@H](C(=O)NCc2cc(-c3cnc(C(F)(F)F)nc3)ncc2F)N1S(=O)(=O)c1ccc(F)cc1 [Example 17, (2S,5S)-1-(4-fluorophenyl)sulfonyl-N-[[5-fluoro-2-[2-(trifluoromethyl)pyrimidin-5-yl]-4-pyridyl]methyl]-5-methyl-pyrrolidine-2-carboxamide]
29.8 nM	O=C(NCc1cc(-c2cnc(C(F)(F)F)nc2)ncn1)[C@@H]1C[C@@H]2C[C@@H]2N1S(=O)(=O)c1ccc(F)cc1 [Example 18, (1S,3S,5S)-2-(4-fluorophenyl)sulfonyl-N-[[6-[2-(trifluoromethyl)pyrimidin-5-yl]pyrimidin-4-yl]methyl]-2-azabicyclo[3.1.0]hexane-3-carboxamide]
5.22 nM	C[C@H]1CC[C@@H](C(=O)NCc2cc(-c3cnc(C(F)(F)F)nc3)ncn2)N1S(=O)(=O)c1ccc(F)cc1 [Example 19, (2S,5S)-1-(4-fluorophenyl)sulfonyl-5-methyl-N-[[6-[2-(trifluoromethyl)pyrimidin-5-yl]pyrimidin-4-yl]methyl]pyrrolidine-2-carboxamide]
10.9 nM	CC[C@H]1CC[C@@H](C(=O)NCc2cc(-c3cnc(C(F)(F)F)nc3)ncn2)N1S(=O)(=O)c1ccc(F)cc1 [Example 20, (2S,5S)-5-ethyl-1-(4-fluorophenyl)sulfonyl-N-[[6-[2-(trifluoromethyl)pyrimidin-5-yl]pyrimidin-4-yl]methyl]pyrrolidine-2-carboxamide]
71.3 nM	O=C(NCc1cc(-c2cnc(C(F)(F)F)nc2)ncn1)[C@@H]1CC[C@H](C2CC2)N1S(=O)(=O)c1ccc(F)cc1 [Example 21, (2S,5R)-5-cyclopropyl-1-(4-fluorophenyl)sulfonyl-N-[[6-[2-(trifluoromethyl)pyrimidin-5-yl]pyrimidin-4-yl]methyl]pyrrolidine-2-carboxamide]
3610 nM	O=C(NCc1cc(-c2cnc(C(F)(F)F)nc2)ncn1)[C@H]1CC[C@@H](C(F)(F)F)N1S(=O)(=O)c1ccc(F)cc1 [Example 22, (2R,5S)-1-(4-fluorophenyl)sulfonyl-5-(trifluoromethyl)-N-[[6-[2-(trifluoromethyl)pyrimidin-5-yl]pyrimidin-4-yl]methyl]pyrrolidine-2-carboxamide]
85.6 nM	C[C@H]1[C@H](F)C[C@@H](C(=O)NCc2cc(-c3ccc(C(F)(F)F)nc3)ncn2)N1S(=O)(=O)c1ccc(F)cc1 [Example 23, (2S,4R,5S)-4-fluoro-1-(4-fluorophenyl)sulfonyl-5-methyl-N-[[6-[6-(trifluoromethyl)-3-pyridyl]pyrimidin-4-yl]methyl]pyrrolidine-2-carboxamide]
19.3 nM	C[C@H]1[C@H](F)C[C@@H](C(=O)NCc2cc(-c3cnc(C(F)(F)F)nc3)ncc2OC(F)F)N1S(=O)(=O)c1ccc(F)cc1 [Example 24, (2S,4R,5S)-N-((5-(difluoromethoxy)-2-(2-(trifluoromethyl)pyrimidin-5-yl)pyridin-4-yl)methyl)-4-fluoro-1-(4-fluorophenylsulfonyl)-5-methylpyrrolidine-2-carboxamide]
2400 nM	C[C@H]1[C@H](F)C[C@@H](C(=O)NCc2cc(N3CC(OC(F)(F)F)C3)ncn2)N1S(=O)(=O)c1ccc(F)cc1 [Example 25, (2S,4R,5S)-4-fluoro-1-(4-fluorophenylsulfonyl)-5-methyl-N-((6-(3-(trifluoromethoxy)azetidin-1-yl)pyrimidin-4-yl)methyl)pyrrolidine-2-carboxamide]
41.2 nM	C[C@H]1[C@H](F)C[C@@H](C(=O)NCc2cc(-c3ccc(C(F)(F)F)nc3)ncc2F)N1S(=O)(=O)c1ccc(F)cc1 [Example 26, (2S,4R,5S)-4-fluoro-N-((5-fluoro-6′-(trifluoromethyl)-2,3′-bipyridin-4-yl)methyl)-1-(4-fluorophenylsulfonyl)-5-methylpyrrolidine-2-carboxamide]
46.4 nM	C[C@H]1[C@H](F)C[C@@H](C(=O)NCc2cc(-c3cnc(C(F)(F)F)nc3)ncc2F)N1S(=O)(=O)c1ccccc1 [Example 27, (2S,4R,5S)-4-fluoro-N-((5-fluoro-2-(2-(trifluoromethyl)pyrimidin-5-yl)pyridin-4-yl)methyl)-5-methyl-1-(phenylsulfonyl)pyrrolidine-2-carboxamide]
6.96 nM	C[C@H]1[C@H](F)C[C@@H](C(=O)NCc2cc(-c3cnc(C(F)(F)F)nc3)ncc2F)N1S(=O)(=O)c1ccc(F)c(F)c1 [Example 28, (2S,4R,5S)-1-(3,4-difluorophenylsulfonyl)-4-fluoro-N-((5-fluoro-2-(2-(trifluoromethyl)pyrimidin-5-yl)pyridin-4-yl)methyl)-5-methylpyrrolidine-2-carboxamide]
113 nM	C[C@H]1[C@H](F)C[C@@H](C(=O)NCc2cc(-c3cnc(C(F)(F)F)nc3)ccn2)N1S(=O)(=O)c1ccc(F)cc1 [Example 29, (2S,4R,5S)-4-fluoro-1-(4-fluorophenylsulfonyl)-5-methyl-N-((4-(2-(trifluoromethyl)pyrimidin-5-yl)pyridin-2-yl)methyl)pyrrolidine-2-carboxamide]
8.65 nM	C[C@H]1[C@H](F)C[C@@H](C(=O)NCc2cc(-c3cnc(C(F)(F)F)nc3)c(F)cc2C#N)N1S(=O)(=O)c1ccc(F)cc1 [Example 30, (2S,4R,5S)-N-(2-cyano-4-fluoro-5-(2-(trifluoromethyl)pyrimidin-5-yl)benzyl)-4-fluoro-1-(4-fluorophenylsulfonyl)-5-methylpyrrolidine-2-carboxamide]
58.7 nM	C[C@H]1[C@H](F)C[C@@H](C(=O)NCc2cc(-c3ccc(C(F)(F)F)cn3)ccn2)N1S(=O)(=O)c1ccc(F)cc1 [Example 31, (2S,4R,5S)-4-fluoro-1-(4-fluorophenylsulfonyl)-5-methyl-N-((5-(trifluoromethyl)-2,4′-bipyridin-2′-yl)methyl)pyrrolidine-2-carboxamide]
10.4 nM	C[C@H]1[C@H](F)C[C@@H](C(=O)NCc2cc(-c3cnc(C(F)(F)F)nc3)c(Cl)cn2)N1S(=O)(=O)c1ccc(F)cc1 [Example 32, (2S,4R,5S)-N-((5-chloro-4-(2-(trifluoromethyl)pyrimidin-5-yl)pyridin-2-yl)methyl)-4-fluoro-1-(4-fluorophenylsulfonyl)-5-methylpyrrolidine-2-carboxamide]
3.58 nM	C[C@H]1[C@H](F)C[C@@H](C(=O)NCc2cc(-c3cnc(C(F)(F)F)nc3)ccc2C#N)N1S(=O)(=O)c1ccc(F)cc1 [Example 33, (2S,4R,5S)-N-([2-cyano-5-[2-(trifluoromethyl)pyrimidin-5-yl]phenyl]methyl)-4-fluoro-1-[(4-fluorobenzene)sulfonyl]-5-methylpyrrolidine-2-carboxamide]
38.8 nM	C[C@H]1[C@H](F)C[C@@H](C(=O)NCc2cc(-c3cnc(C(F)(F)F)nc3)c(F)cn2)N1S(=O)(=O)c1ccc(F)cc1 [Example 34, (2S,4R,5S)-4-fluoro-N-([5-fluoro-4-[2-(trifluoromethyl)pyrimidin-5-yl]pyridin-2-yl]methyl)-1-[(4-fluorobenzene)sulfonyl]-5-methylpyrrolidine-2-carboxamide]
